Laboratory results reported in patent US11633355B2, “Multi-functional particles and methods of using the same” (Clemson University Research Foundation, priority 2014, dated 2023).

Experiments:
[1] = Sirolimus and heparin loading in PgP micelles; type: physicochemical; conditions: 0.45 μm filter
Procedure: 50 μl Hep-F (20 mg/ml) was added into PgP solution, followed by two more hours stirring. Methanol was allowed to evaporate overnight, and the solution was centrifuged at 15,000×RCF for 15 minutes. Supernatant containing unbound Hep-F was removed and the precipitated nanoparticle was collected, resuspended and then filtered using 0.45 μm sterile syringe filter to remove unloaded SR. The amount of Hep-F binding to PgP was measured using Hep-F standard curve. Fluorescence was measured using a microplate reader (Excitation: 494 nm Emission: 521 nm, Biotek, VT, USA). Loading efficiency for Hep was calculated as % loading efficiency=(amount of Hep bound to PgP/amount of Hep added to PgP)×100.
Sr-PgP-Hep was prepared sequential loading of SR and Hep in PgP. Briefly, SR solution (LC labs, USA) was loaded in the PgP using solvent evaporation method and Hep was added into SR-PgP solution. […] The amount of SR loaded in PgP micelles solution was measured by High Pressure Liquid Chromatography (HPLC) (Waters Corporation, USA) using SR standard curve prepared in acetonitrile (ACN). […] The loading efficiency was calculated as: % loading efficiency=amount of SR loaded/amount of SR added ×100. The amount of Hep bound to PgP was determined based on Hep-F loading as described above.

[2] = system: rat primary cerebellar neurons (CBN); assay: Neurite length of cerebellar neurons in in vitro hypoxia condition; type: cell-based; conditions: hypoxia 24 hours, then treatment for additional 24 hrs
Procedure: To generate hypoxia condition as a SCI model in vitro, rat primary cerebellar neurons (CBN) were isolated from P3 pubs and plated on the PLL/Laminin coated well plate. After 3 days culture, the cells were incubated in hypoxia gas chamber (95% N2 and 5% 02) for 24 hours and then the cells were treated with Rm-PgP and PgP without rolipram. Cells treated with free rolipram dissolved in DMSO were used as a positive control and cells maintained under normal atmospheric conditions were used as a negative control. The cells were incubated an additional 24 hrs in hypoxia condition and then fixed for neurite length evaluation. The neurite lengths were measured using ImageJ software program after β-3 tubulin staining.

| SR added in water without PgP, detection by HPLC after filtration [1] | SMILES | neurite length compared with normoxia [2] |
| --- | --- | --- |
| not detected | CO[C@H]1C[C@@H]2CC[C@@H](C)[C@@](O)(O2)C(=O)C(=O)N2CCCC[C@H]2C(=O)O[C@H]([C@H](C)C[C@@H]2CC[C@@H](O)[C@H](OC)C2)CC(=O)[C@H](C)/C=C(\C)[C@@H](O)[C@@H](OC)C(=O)[C@H](C)C[C@H](C)/C=C/C=C/C=C/1C [sirolimus] |  |
|  | COc1ccc(C2CNC(=O)C2)cc1OC1CCCC1 (centres unmarked) [free Rm, rolipram] | not significantly different |
